From patent publication US20250025429A1, “LIPID NANOPARTICLES FOR OLIGONUCLEOTIDE DELIVERY” (ZIPHIUS NV, priority 2021, published 2025)

Tests used:
[1] = saRNA encapsulation, Quant-IT RiboGreen assay; assay type: physicochemical; settings: LNP with saRNA; RiboGreen with or without 2% Triton X-100
Protocol: The saRNA loading in LNP formulations was quantified using a Quant-IT RiboGreen assay (Thermo Fisher Scientific, Waltham, Massachusetts, USA) as previously described. 14 samples were diluted tenfold in 1× Tris HCL—EDTA (TE) buffer (10 mM Tris-HCL, 1 mM EDTA, pH 7.5) with or without 2% (v/v) Triton X-100 (Sigma-Aldrich, Saint Louis, Missouri, USA). Standard solutions were also prepared in 1×TE with or without 2% (v/v) Triton X-100 to account for any variation in fluorescence. The assay was performed according to the manufacturer's protocol. Samples were loaded on a black 96-well plate and analysed for fluorescence on a microplate reader (Tecan Infinite@200 PRO) at an excitation of 485 nm and emission at 528 nm. Encapsulation efficiency was calculated between 80-100%.

luciferase saRNA = assay: In vivo bioluminescent imaging after intramuscular injection of LNP-formulated luciferase saRNA; settings: female SWISS mice, 1 μg luciferase saRNA intramuscularly
Protocol: (§1) Female SWISS mice (6 weeks old) were purchased from Janvier Laboratories (Paris, France) and kept in individually ventilated cages with access to food and water ad libitum. Mice were anesthetized with isoflurane (Zoetis, Louvain-La-Neuve, Belgium) (5% for induction and 2% for maintenance) and intramuscularly injected with a total of 1 μg in 100 μL Tris-HCL (50 μL per leg) LNP-formulated luciferase saRNA (for each group n=7). The expression of the luciferase induced bioluminescence was measured via non-invasive In vivo bioluminescent imaging (In vivo Imaging System (IVIS) Lumina III, Perkin Elmer, Waltham, Massachusetts, USA), 10 minutes after subcutaneous injection of 200 μL of D-luciferin (GoldBio, Saint Louis, Missouri, USA, #LUCK-1G) were measured in day 0 (before injection), day 1, day 3, day 5, day 7, day 10, day 15 and day 20. Table 4 and 5 report on the in vivo study using exemplary compounds 10-21, 10-44 and 10-45 and comparator lipids C12-200 and C1. […] Table 5 supports good tolerability of the compounds according to formula I.

[2] = Body weight of mice in the in vivo study (tolerability); settings: female SWISS mice, 1 μg LNP-formulated saRNA intramuscularly
Protocol: as §1

[3] = LNP characterisation by Zeta Sizer (particle size, polydispersity, charge); assay type: physicochemical; settings: LNP with saRNA; lipid:DOPE:Cholesterol:DMG-PEG 35:20:43.5:1.5; N/P approximately 40/1
Protocol: Cationic lipids, DOPE, Cholesterol and DMG-PEG lipid were solubilized in ethanol or DMSO at a molar ratio of 35:20:43.5:1.5 and a concentration of 100:25:20:25 μg/μL for C12-200 or 170:25:20:25 μg/μL for the comparator lipids. Lipid nanoparticles (LNP) were prepared by targeting an N/P ratio of approximately 40/1 with saRNA. Briefly, the saRNA was diluted to 0.5 mg/mL in 5 mM citrate buffer, pH 4.5. Microfluidic mixer (Ignite from Precision Nanosystems, California, USA) was used to mix the lipid solution with the saRNA aqueous solution at a ratio of about 1:3 (vol/vol) with total flow rates above 10 ml/min. The ethanol was then removed, and the external buffer replaced with 10 mM TRIS-HCL, pH 7.4, by dialysis. Finally, the lipid nanoparticles were filtered through a 0.2 μm pore sterile filter. Lipid nanoparticle particle size was 50-150 nm diameter and polydispersity index (PI) of 0.1-0.4 as determined by Zeta Sizer (Malvern Panalytical, UK). The charge of the formulation was also measured by Zeta Sizer and ranged between 20 to −20 mV.

Encapsulation (%) [1] [%] | Polydispersity Index (PI) [3] | Z-average (nm) [3] [nm] | Zetapotential (mV) [3] [mV] | SMILES | Bioluminescence expression of LNPs (luciferase saRNA; Day 0 (before injection)) | Bioluminescence expression of LNPs (luciferase saRNA; Day 1) | Bioluminescence expression of LNPs (luciferase saRNA; Day 3) | Bioluminescence expression of LNPs (luciferase saRNA; Day 5) | Bioluminescence expression of LNPs (luciferase saRNA; Day 7) | Bioluminescence expression of LNPs (luciferase saRNA; Day 10) | Bioluminescence expression of LNPs (luciferase saRNA; Day 15) | Bioluminescence expression of LNPs (luciferase saRNA; Day 20) | Weight ([2]; Day 0 (before injection)) [g] | Weight ([2]; Day 1) [g] | Weight ([2]; Day 3) [g] | Weight ([2]; Day 5) [g] | Weight ([2]; Day 7) [g] | Weight ([2]; Day 10) [g] | Weight ([2]; Day 15) [g] | Weight ([2]; Day 20) [g]
100.49 | 0.1 | 81.42 | 2.78 | CCCCCCC(CCCC)C(=O)OCCCCN(CCCCOC(=O)C(CCCC)CCCCCC)CCN1CCN(CCNCCN)CC1 (stereo not shown) [Compound 10-45, ((2-(4-(2-((2-aminoethyl)amino)ethyl)piperazin-1-yl)ethyl)azanediyl)bis(butane-4,1-diyl) bis(2-butyloctanoate)] | 6.00E+04 | 1.09E+07 | 1.90E+07 | 1.72E+07 | 1.68E+07 | 7.02E+05 | 7.94E+04 | 8.63E+04 | 26.93 | 25.79 | 26.43 | 27.10 | 27.27 | 27.69 | 28.19 | 30.21
95.32 | 0.27 | 98.11 | −5.50 | CCCCCCCCCCC(O)CN(CCN1CCN(CCN(CC(O)CCCCCCCCCC)CC(O)CCCCCCCCCC)CC1)CCN(CC(O)CCCCCCCCCC)CC(O)CCCCCCCCCC (stereo not shown) [Compound C12-200, 1,1′-((2-(4-(2-((2-(bis(2-hydroxydodecyl)amino)ethyl) (2-hydroxydodecyl)amino)ethyl)piperazin-1-yl)ethyl)azanediyl) bis(dodecan-2-ol), reference compound] | 2.39E+04 | 3.36E+08 | 6.19E+08 | 4.79E+08 | 2.47E+08 | 2.20E+07 | 4.80E+05 | 9.12E+04 | 28.61 | 27.17 | 28.62 | 28.98 | 28.97 | 29.23 | 30.16 | 31.23
99.41 | 0.16 | 72.27 | 7.05 | CCCCCCC(CCCC)C(=O)OCCCCN(CCCCOC(=O)C(CCCC)CCCCCC)CCN1CCN(CCO)CC1 (stereo not shown) [Compound 10-21, ((2-(4-(2-hydroxyethyl)piperazin-1-yl)ethyl)azanediyl)bis(butane-4,1-diyl) bis(2-butyloctanoate)] | 3.89E+04 | 3.23E+06 | 5.03E+07 | 8.74E+07 | 5.77E+07 | 7.72E+06 | 2.44E+05 | 1.62E+05 | 27.96 | 28.19 | 28.26 | 27.90 | 28.01 | 27.57 | 28.63 | 30.83
99.03 | 0.16 | 70.96 | 9.07 | CCCCCCCCCCCCCCOC(=O)CCN(CCC(=O)OCCCCCCCCCCCCCC)CCN1CCN(CCN(CCC(=O)OCCCCCCCCCCCCCC)CCC(=O)OCCCCCCCCCCCCCC)CC1 [Comparator 1 (C1), reference compound] | 3.32E+04 | 2.76E+07 | 1.28E+08 | 7.19E+07 | 8.88E+07 | 5.07E+06 | 8.46E+04 | 4.32E+04 | 26.56 | 25.99 | 27.21 | 27.59 | 27.09 | 27.17 | 29.43 | 30.11
100.06 | 0.15 | 67.46 | 1.25 | CCCCCCC(CCCC)C(=O)OCCCCN(CCCCOC(=O)C(CCCC)CCCCCC)CCN1CCN(CCN)CC1 (stereo not shown) [Compound 10-44, ((2-(4-(2-aminoethyl)piperazin-1-yl)ethyl)azanediyl)bis(butane-4,1-diyl) bis(2-butyloctanoate)] | 2.87E+04 | 1.61E+07 | 3.62E+07 | 4.98E+07 | 4.24E+07 | 1.09E+06 | 5.87E+04 | 6.12E+04 | 26.84 | 26.46 | 27.00 | 28.13 | 27.94 | 28.11 | 29.31 | 30.04
